Patent US11560385B2, “Proteasome activity enhancing compounds” (Proteostasis Therapeutics, Inc., priority 2018, dated 2023)

The molecules below were run against USP14 (Homo sapiens (Human), UniProt P54578) (assay: Usp14 inhibition assay (Example 57B, B-series compounds)). Details: IC50 class; average value from a minimum of two experimental determinations.
Type: biochemical
Source text: Example 57B: Usp14 Inhibition Assay
The IC50 values in the Table below represent the average value from a minimum of two experimental determinations.

USP14, sequence (P54578 whole entry, looked up): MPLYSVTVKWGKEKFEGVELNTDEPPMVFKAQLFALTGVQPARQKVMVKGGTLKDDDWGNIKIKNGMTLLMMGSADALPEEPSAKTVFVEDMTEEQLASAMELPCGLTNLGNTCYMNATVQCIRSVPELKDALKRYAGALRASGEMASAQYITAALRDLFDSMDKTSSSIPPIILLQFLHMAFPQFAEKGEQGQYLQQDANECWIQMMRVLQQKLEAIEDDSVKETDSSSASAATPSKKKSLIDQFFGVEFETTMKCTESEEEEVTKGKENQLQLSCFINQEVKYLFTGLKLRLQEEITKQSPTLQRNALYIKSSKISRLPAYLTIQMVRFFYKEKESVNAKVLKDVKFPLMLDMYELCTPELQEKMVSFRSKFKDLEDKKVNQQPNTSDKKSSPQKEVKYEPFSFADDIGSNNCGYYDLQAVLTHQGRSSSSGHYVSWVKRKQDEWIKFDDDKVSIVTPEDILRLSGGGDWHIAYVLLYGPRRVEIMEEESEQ

SMILES	IC50
Cc1cc(C(=O)CN2C3CCC2[C@@H](O)C3)c(C)n1-c1ccc(C#N)c(F)c1F (mixture of isomers) [Example 99B, (±)-2,3-Difluoro-4-(3-(2-((2R)-2-hydroxy-7-azabicyclo[2.2.1]heptan-7-yl)acetyl)-2,5-dimethyl-1H-pyrrol-1-yl)benzonitrile]	> 500 nM
Cc1cc(C(=O)CN2[C@@H]3CC[C@H]2[C@@H](C)C3)c(C)n1-c1ccc(C#N)cc1 (racemic) [Example 100B, (±)-4-(2,5-Dimethyl-3-(2-((1S,2S,4R)-2-methyl-7-azabicyclo[2.2.1]heptan-7-yl)acetyl)-1H-pyrrol-1-yl)benzonitrile]	> 500 nM
Cc1c(F)c(C(=O)CN2[C@@H]3CC[C@H]2[C@@H](C)C3)c(C)n1-c1ccc(C#N)cc1 (racemic) [Example 101B, (±)-4-(3-Fluoro-2,5-dimethyl-4-(2-((1S,2S,4R)-2-methyl-7-azabicyclo[2.2.1]heptan-7-yl)acetyl)-1H-pyrrol-1-yl)benzonitrile]	50 to 500 nM
Cc1cc(C(=O)CN2[C@@H]3CC[C@H]2[C@@H](C(F)(F)F)C3)c(C)n1-c1ccc(C#N)cc1 (racemic) [Example 102B, (±)-4-(2,5-Dimethyl-3-(2-((1R,2R,4S)-2-(trifluoromethyl)-7-azabicyclo[2.2.1]heptan-7-yl)acetyl)-1H-pyrrol-1-yl)benzonitrile]	> 500 nM
Cc1c(F)c(C(=O)CN2[C@@H]3CC[C@H]2[C@@H](C(F)(F)F)C3)c(C)n1-c1ccc(C#N)cc1 (racemic) [Example 103B, (±)-4-(3-Fluoro-2,5-dimethyl-4-(2-((1R,2R,4S)-2-(trifluoromethyl)-7-azabicyclo[2.2.1]heptan-7-yl)acetyl)-1H-pyrrol-1-yl)benzonitrile]	> 500 nM
Cc1cc(C(=O)CN2[C@@H]3CC[C@H]2[C@@H](OC(F)(F)F)C3)c(C)n1-c1ccc(C#N)cc1 (racemic) [Example 105B, (±)-4-(2,5-Dimethyl-3-(2-((1R,2R,4S)-2-(trifluoromethoxy)-7-azabicyclo[2.2.1]heptan-7-yl)acetyl)-1H-pyrrol-1-yl)benzonitrile]	> 500 nM
Cc1cc(C(=O)CN2C3CCC2[C@@H]2COC[C@H]32)c(C)n1-c1ccc(C#N)cc1 (racemic) [Example 106B, (±)-4-(2,5-Dimethyl-3-(2-((3aR,4R,7S,7aS)-octahydro-4,7-epiminoisobenzofuran-8-yl)acetyl)-1H-pyrrol-1-yl)benzonitrile]	50 to 500 nM
Cc1cc(C(=O)CN2C3CCC2[C@@H](O)C3)c(C)n1-c1cc(F)c(C#N)cc1F (mixture of isomers) [Example 107B, (±)-2,5-Difluoro-4-(3-(2-((2R)-2-hydroxy-7-azabicyclo[2.2.1]heptan-7-yl)acetyl)-2,5-dimethyl-1H-pyrrol-1-yl)benzonitrile]	50 to 500 nM
Cc1c(C(=O)CN2C3CCC2[C@@H](O)C3)cc(C2CCC2)n1-c1ccc(C#N)cc1 (mixture of isomers) [Example 108B, (±)-4-(5-Cyclobutyl-3-(2-((2R)-2-hydroxy-7-azabicyclo[2.2.1]heptan-7-yl)acetyl)-2-methyl-1H-pyrrol-1-yl)benzonitrile]	< 50 nM
Cc1c(C(=O)CN2C3CCC2[C@@H](O)C3)cc(C(F)(F)F)n1-c1ccc(C#N)cc1 (mixture of isomers) [Example 109B, (±)-4-(3-(2-((2R)-2-Hydroxy-7-azabicyclo[2.2.1]heptan-7-yl)acetyl)-2-methyl-5-(trifluoromethyl)-1H-pyrrol-1-yl)benzonitrile]	50 to 500 nM
Cc1c(C(=O)CN2C3CCC2[C@@H](O)C3)cc(C2CCCC2)n1-c1ccc(C#N)cc1 (mixture of isomers) [Example 110B, (±)-4-(5-Cyclopentyl-3-(2-((2R)-2-hydroxy-7-azabicyclo[2.2.1]heptan-7-yl)acetyl)-2-methyl-1H-pyrrol-1-yl)benzonitrile]	50 to 500 nM
Cc1c(C(=O)CN2[C@@H]3CC[C@H]2[C@@H](O)C3)cc(C2CCCCC2)n1-c1ccc(C#N)cc1 (racemic) [Example 111B, (±)-4-(5-Cyclohexyl-3-(2-((1R,2R,4S)-2-hydroxy-7-azabicyclo[2.2.1]heptan-7-yl)acetyl)-2-methyl-1H-pyrrol-1-yl)benzonitrile]	50 to 500 nM
